This passage reports IC50 results from the Kinase Knowledgebase extract (Sharma et al. 2016).

Assay [1] has as its target EGFR (human) (UniProt P00533). To be noted: a431.
Assay [2] deals with EGFR (human) (UniProt P00533). To be noted: sw948.
The target of assay [3] is EGFR (human) (UniProt P00533). To be noted: t-47d.
Assay [4] has as its target EGFR (human) (UniProt P00533). To be noted: pc-3.
Assay [5] has as its target EGFR (UniProt P00533).
Assay [6] concerns the target EGFR (human) (UniProt P00533). To be noted: nhek.
The target of assay [7] is EGFR (human) (UniProt P00533). To be noted: htb161.
The target of assay [8] is EGFR (human) (UniProt P00533). To be noted: a2780s.
The target of assay [9] is EGFR (human) (UniProt P00533). To be noted: a2780ddp.
Assay [10] concerns the target EGFR (human) (UniProt P00533). To be noted: mip.
For assay [11], the target named is EGFR (human) (UniProt P00533). To be noted: colo-205.
In assay [12] the target is EGFR (human) (UniProt P00533). To be noted: cx-1 colon.
In assay [13] the target is EGFR (human) (UniProt P00533). To be noted: caco2.
The target of assay [14] is EGFR (human) (UniProt P00533). To be noted: hct-15.
Assay [15] addresses EGFR (human) (UniProt P00533). To be noted: ls174t.
For assay [16], the target named is EGFR (human) (UniProt P00533). To be noted: ccl228.
The target of assay [17] is EGFR (human) (UniProt P00533). To be noted: b7474.
Assay [18] has as its target EGFR (human) (UniProt P00533). To be noted: lx1.
In assay [19] the target is EGFR (human) (UniProt P00533). To be noted: a549.
Assay [20] concerns the target EGFR (human) (UniProt P00533). To be noted: nfc.
Assay [21] concerns the target EGFR (human) (UniProt P00533). To be noted: du145.
Assay [22] addresses EGFR (human) (UniProt P00533). To be noted: lncap.
Assay [23] addresses EGFR (human) (UniProt P00533). To be noted: hl-60.
Assay [24] has as its target EGFR (human) (UniProt P00533). To be noted: ccrf-cem leukemia cell.
Assay [25] deals with EGFR (UniProt P00533). This is another data set of the same source.
Sequence of EGFR (P00533 whole entry, looked up): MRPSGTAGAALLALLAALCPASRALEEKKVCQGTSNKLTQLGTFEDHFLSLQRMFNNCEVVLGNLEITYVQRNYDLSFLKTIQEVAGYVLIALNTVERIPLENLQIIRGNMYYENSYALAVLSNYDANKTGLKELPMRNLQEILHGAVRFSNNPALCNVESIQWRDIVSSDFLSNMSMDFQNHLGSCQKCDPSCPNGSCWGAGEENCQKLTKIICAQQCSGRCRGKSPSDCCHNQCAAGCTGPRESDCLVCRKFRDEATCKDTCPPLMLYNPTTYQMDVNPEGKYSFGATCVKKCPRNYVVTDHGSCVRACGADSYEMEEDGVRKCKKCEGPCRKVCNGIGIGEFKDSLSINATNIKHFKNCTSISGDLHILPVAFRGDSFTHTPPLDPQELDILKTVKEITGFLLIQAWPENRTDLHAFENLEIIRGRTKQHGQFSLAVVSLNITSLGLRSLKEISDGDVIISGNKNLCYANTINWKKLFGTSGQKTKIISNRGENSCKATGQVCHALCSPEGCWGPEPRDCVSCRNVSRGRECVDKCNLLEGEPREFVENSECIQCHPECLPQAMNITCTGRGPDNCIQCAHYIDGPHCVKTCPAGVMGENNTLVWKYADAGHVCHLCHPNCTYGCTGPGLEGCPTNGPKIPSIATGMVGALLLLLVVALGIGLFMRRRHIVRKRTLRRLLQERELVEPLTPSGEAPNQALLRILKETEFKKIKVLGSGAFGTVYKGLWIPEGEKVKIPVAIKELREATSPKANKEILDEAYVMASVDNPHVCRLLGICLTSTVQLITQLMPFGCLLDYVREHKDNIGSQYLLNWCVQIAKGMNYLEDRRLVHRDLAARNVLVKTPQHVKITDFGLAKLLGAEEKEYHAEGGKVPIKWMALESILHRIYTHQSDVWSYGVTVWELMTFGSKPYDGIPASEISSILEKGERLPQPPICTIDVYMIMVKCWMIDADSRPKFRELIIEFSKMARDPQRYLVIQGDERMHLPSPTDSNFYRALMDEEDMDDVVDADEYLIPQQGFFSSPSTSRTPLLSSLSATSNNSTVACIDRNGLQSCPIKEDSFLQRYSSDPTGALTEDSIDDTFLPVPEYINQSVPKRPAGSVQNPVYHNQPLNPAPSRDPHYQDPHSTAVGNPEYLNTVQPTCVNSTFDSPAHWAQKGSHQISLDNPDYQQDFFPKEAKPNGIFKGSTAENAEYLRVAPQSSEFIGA

Structures are written as SMILES. Values after ≈ are worked out from the molar mass of the structure shown. Values joined by “and” are separate entries in the source; they are usually repeats but may differ in a detail not shown here. Equal values may be shown once.

Sequence of EGFR (human) (P00533 whole entry, looked up): as above

Compound `COc1cc2ncc(C#N)c(Nc3cccc(Br)c3)c2cc1OC` had an IC50 in assay [1] of 300 nM.
`CCN1CCN(CC#CC(=O)Nc2ccc3ncc(C#N)c(Nc4cccc(Br)c4)c3c2)CC1`: in assay [1], the concentration for half-maximal inhibition (IC50) was 800 nM.
Take `CC(=O)Nc1cc(CN(C)C)c2ncc(C#N)c(Nc3cccc(Br)c3)c2c1`: the IC50 in assay [1] was over 5 µg/mL.
As for `COc1cc2ncc(C#N)c(Nc3cccc(Cl)c3)c2cc1OC`, in assay [1], the IC50 is 240 nM and 0.71 µg/mL.
With `COc1cc2ncc(C#N)c(Nc3ccc(F)cc3)c2cc1OC`, the IC50 in assay [2], in [3] and in assay [4] was over 100 µg/mL in each case.
On to `CC#CC(=O)Nc1ccc2ncc(C#N)c(Nc3cccc(Br)c3)c2c1`, for which the IC50 in [5] came out at 9000 nM; in assay [6], 9000 nM; in [7], 7.89 µg/mL (≈ 19.5 µM); in assay [8], 9.8 µg/mL (≈ 24.2 µM); in assay [9], 60.4 µg/mL (≈ 149 µM); in assay [10], 100 µg/mL (≈ 247 µM). Also, the IC50 in assay [11] was over 100 µg/mL; in [12], 81.9 µg/mL (≈ 202 µM); in assay [13], 5.63 µg/mL (≈ 13.9 µM); in [14], > 33 µg/mL and 98.9 µg/mL; in assay [15], > 33 µg/mL and 87 µg/mL; in assay [2], over 100 µg/mL. Moreover, the IC50 in assay [16] is over 100 µg/mL; in assay [17] it was > 33 µg/mL and 95.7 µg/mL; in assay [3] it was over 100 µg/mL; in assay [18], over 100 µg/mL; in assay [19], over 100 µg/mL; in assay [1], 38.1 µg/mL. Besides, the IC50 in assay [20] is over 100 µg/mL; in [21] it was 7.81 µg/mL (≈ 19.3 µM); in [4] it was over 100 µg/mL; in assay [22], > 33 µg/mL and 90 µg/mL; in [23], over 100 µg/mL; in [24] it was over 100 µg/mL.
As for `N#Cc1cnc2ccc([N+](=O)[O-])cc2c1Nc1cccc(Br)c1`, the IC50 in assay [12] is over 100 µg/mL; in assay [14] it was 100 µg/mL (≈ 271 µM); in [2] it was over 100 µg/mL; in [16], over 100 µg/mL; in [18], over 100 µg/mL; in assay [19] it was over 100 µg/mL. Besides, the IC50 in assay [20], in assay [4], in [22] and in assay [24] was over 100 µg/mL each time.
In assay [25], `COc1cc2ncc(C#N)c(Nc3cccc(Br)c3)c2cc1NC(=O)C#CCN(C)C` showed an IC50 of 0.008 nM.
Regarding `N#Cc1cnc2ccc(N)cc2c1Nc1cccc(Br)c1`, the IC50 in assay [11] and in assay [2] was over 100 µg/mL in each case.
Regarding `COc1cc2ncc(C#N)c(Nc3cccc(SC)c3)c2cc1OC`, the IC50 in assay [25] is 10 nM; in assay [1], 14.3 µg/mL and 6.95 µg/mL.
`COc1cc2ncc(C#N)c(Oc3cccc(Br)c3)c2cc1OC`: the IC50 was over 100 µg/mL in [10]; over 100 µg/mL in assay [15]; over 100 µg/mL in assay [2]; over 100 µg/mL in [18]; over 100 µg/mL in assay [19]; 100 µg/mL in assay [1]. Also, the IC50 in assay [4] and in [24] was over 100 µg/mL each time.
Compound `CNC/C=C/C(=O)Nc1ccc2ncc(C#N)c(Nc3cccc(Br)c3)c2c1` returned an IC50 in [1] of over 10 µg/mL.
`COc1cc2ncc(C#N)c(Nc3cccc(C#N)c3)c2cc1OC`: the IC50 was over 100 µg/mL in assay [10]; over 100 µg/mL in assay [11]; over 100 µg/mL in assay [2]; over 100 µg/mL in assay [16]; 100 µg/mL (≈ 303 µM) in [18]; 100 µg/mL (≈ 303 µM) in assay [19]. For the same compound, the IC50 in assay [23] was over 1 µg/mL; in assay [24] it was over 100 µg/mL.
On to `COC/C=C/C(=O)Nc1ccc2ncc(C#N)c(Nc3cccc(Br)c3)c2c1`, for which the concentration for half-maximal inhibition (IC50) in assay [25] is 80 nM; in [1], 0.8 µg/mL.
